Measurements taken from patent publication US9029127B2, “Method of degrading TBP using a photosynthetic bacterial strain” (priority 2003, dated 2015).

Legend:
Rp. palustris ΔpRpa1 = type: cell-based, Rhodopseudomonas palustris
Rp. palustris = experiment: Growth of wild-type Rp. palustris in the presence of gentamycin; type: cell-based, Rhodopseudomonas palustris; details: gentamycin 50 μg·ml^−1
[1] = tested on: proteins extracted from Rp. palustris CGA009; type: biochemical, Rhodopseudomonas palustris
Serratia odorifera sp. = experiment: Effect of carbon monoxide on growth and TBP degradation of Serratia odorifera; type: cell-based; details: aerobiosis; for effect of CO on growth: Tsb medium
[2] = tested on: Rp. palustris CGA009 (ATCC BAA-98); experiment: Effect of the cytochrome P450 inhibitor carbon monoxide on growth and TBP degradation of Rp. palustris; details: for effect of CO on growth: photosynthetic conditions, Hutner medium

gentamycin
growth in the presence of the antibiotic (Rp. palustris ΔpRpa1): grows in the presence of this antibiotic | resistance of the strain to the antibiotic (Rp. palustris): naturally resistant

Cc1cc2c(cc1C)N(C[C@H](O)[C@H](O)[C@H](O)COP(=O)(O)OP(=O)(O)OC[C@H]1O[C@@H](n3cnc4c(N)ncnc43)[C@H](O)[C@@H]1O)c1[nH]c(=O)[nH]c(=O)c1N2 [FADH2]
effect of cofactor on TBP degradation [1]: does not significantly enhance

NC(=O)C1=CN([C@@H]2O[C@H](COP(=O)(O)OP(=O)(O)OC[C@H]3O[C@@H](n4cnc5c(N)ncnc54)[C@H](O)[C@@H]3O)[C@@H](O)[C@H]2O)C=CC1 [NADH]
effect of cofactor on TBP degradation [1]: does not significantly enhance

[C-]#[O+] [CO, carbon monoxide]
effect of CO on TBP degradation yield (Serratia odorifera sp.; 2 mM TBP): does not significantly modify | effect of CO on growth (Serratia odorifera sp.; 2 mM TBP present): nor does it affect the growth | effect of CO on growth (Serratia odorifera sp.; TBP absent): does not affect the growth | effect of CO on growth ([2]; 2 mM TBP present): greatly reduced | effect of CO on growth ([2]; TBP absent): does not affect the growth | effect of CO on TBP degradation ([2]; residual TBP after 21 days of culture, 2 mM TBP): considerable decrease in TBP degradation
